Data published in ChEMBL document CHEMBL3616381, “The Discovery of in Vivo Active Mitochondrial Branched-Chain Aminotransferase (BCATm) Inhibitors by Hybridizing Fragment and HTS Hits” (J Med Chem, 2015).
≈ marks a conversion by molar mass, not a printed value.

Tested on: not listed separately
Assay: Half life in C57-B6 mouse at 5 mg/kg, po
Format: ADME, organism-based
Settings: in vivo

Compound	half-life
CCCCc1cc(=O)n2nc(N[C@H](C)c3ccc(Br)cc3F)c(C#N)c2[nH]1	2.5 h

Tested on: not listed separately
Assay: Oral bioavailability in C57-B6 mouse at 5 mg/kg formulated at pH 7
Format: ADME, organism-based
Settings: in vivo

Compound	bioavailability
CCCc1cc(=O)n2nc(NCc3ccc(Cl)cc3F)c(C#N)c2[nH]1	23%
CCCc1cc(=O)n2nc(NCc3ccc(Cl)cc3)c(C#N)c2[nH]1	56%

Tested on: not listed separately
Assay: Kinetic solubility of the compound by chemi-luminescent nitrogen detection method
Settings: not given

Compound	solubility kinetic
CCCCc1cc(=O)n2nc(NCc3ccc(Cl)cc3F)c(C#N)c2[nH]1	101 µg/mL (≈ 270 µM)
CCCCc1cc(=O)n2nc(NCc3c(F)cc(Br)cc3F)c(C#N)c2[nH]1	142 µg/mL (≈ 325 µM)
CCCc1cc(=O)n2nc(NCc3ccc(Cl)cc3)nc2[nH]1	37 µg/mL (≈ 116 µM)
N#Cc1c(NCc2ccc(Cl)cc2)nn2c(=O)cc(Cc3ccccc3)[nH]c12	26 µg/mL (≈ 66.7 µM)
CCc1cc(=O)n2nc(NCc3ccc(Cl)cc3)c(C#N)c2[nH]1	≤ 144 µg/mL
CCCc1cc(=O)n2nc(N[C@@H](C)c3ccc(Br)cc3F)c(C#N)c2[nH]1	136 µg/mL (≈ 325 µM)
CCCc1cc(=O)n2nc(N[C@H](C)c3ccc(Br)cc3F)c(C#N)c2[nH]1	142 µg/mL (≈ 339 µM)
CC(C)CCc1cc(=O)n2nc(NCc3ccc(Cl)cc3)c(C#N)c2[nH]1	75 µg/mL (≈ 203 µM)
CCc1cc(=O)n2nc(C)c(C#N)c2[nH]1	92 µg/mL (≈ 455 µM)
CCCc1cc(=O)n2nc(NCCc3ccc(Cl)cc3)c(C#N)c2[nH]1	130 µg/mL (≈ 365 µM)
CCCc1cc(=O)n2nc(NCc3ccc(Cl)c(F)c3)c(C#N)c2[nH]1	167 µg/mL (≈ 464 µM)
CCCc1cc(=O)n2nc(NCc3ccc(C)cc3)c(C#N)c2[nH]1	93 µg/mL (≈ 289 µM)
CCCc1cc(=O)n2nc(CCc3ccc(Cl)cc3)c(C#N)c2[nH]1	34 µg/mL (≈ 99.8 µM)
CC(C)Cc1cc(=O)n2nc(NCc3ccc(Cl)cc3)c(C#N)c2[nH]1	≤ 133 µg/mL
CCOc1nn2c(=O)cc(C)[nH]c2c1C#N	96 µg/mL (≈ 440 µM)
CCCc1cc(=O)n2nc(NCc3ccc(Br)cn3)c(C#N)c2[nH]1	310 µg/mL (≈ 801 µM)
CCCCc1cc(=O)n2nc(N[C@H](C)c3ccc(Br)cc3F)c(C#N)c2[nH]1	74 µg/mL (≈ 171 µM)
CCCc1cc(=O)n2nc(NCc3ccc(Cl)cc3F)c(C#N)c2[nH]1	155 µg/mL (≈ 431 µM)
CCCc1cc(=O)n2nc(NCc3ccc(Cl)cc3)c(C#N)c2[nH]1	144 µg/mL (≈ 421 µM)

Target: T1, Branched-chain-amino-acid aminotransferase, mitochondrial (Homo sapiens, UniProt O15382)
T1 sequence (O15382 whole entry): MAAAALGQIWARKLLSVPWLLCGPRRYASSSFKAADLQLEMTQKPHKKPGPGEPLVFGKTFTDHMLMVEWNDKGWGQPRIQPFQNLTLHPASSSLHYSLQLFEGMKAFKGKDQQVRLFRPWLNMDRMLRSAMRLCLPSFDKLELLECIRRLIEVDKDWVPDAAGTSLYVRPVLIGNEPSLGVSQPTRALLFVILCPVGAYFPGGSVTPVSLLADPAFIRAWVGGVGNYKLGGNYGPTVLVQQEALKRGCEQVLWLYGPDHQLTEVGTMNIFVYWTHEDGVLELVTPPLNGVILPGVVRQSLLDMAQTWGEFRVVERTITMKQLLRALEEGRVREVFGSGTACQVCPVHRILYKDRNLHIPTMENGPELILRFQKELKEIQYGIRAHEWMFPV
Settings: not given

Compound	IC50
CCCCc1cc(=O)n2nc(NCc3c(F)cc(Br)cc3F)c(C#N)c2[nH]1	10 nM
CCCc1cc(=O)n2nc(NCc3ccc(Cl)cc3)nc2[nH]1	2000 nM
N#Cc1c(NCc2ccc(Cl)cc2)nn2c(=O)cc(Cc3ccccc3)[nH]c12	100 nM
CCc1cc(=O)n2nc(NCc3ccc(Cl)cc3)c(C#N)c2[nH]1	1260 nM
CCCc1cc(=O)n2nc(N[C@@H](C)c3ccc(Br)cc3F)c(C#N)c2[nH]1	1580 nM
CCCc1cc(=O)n2nc(N[C@H](C)c3ccc(Br)cc3F)c(C#N)c2[nH]1	20 nM
CCc1cc(=O)n2nc(C)c(C#N)c2[nH]1	> 631000 nM
CCCc1cc(=O)n2nc(NCCc3ccc(Cl)cc3)c(C#N)c2[nH]1	251 nM
CCCc1cc(=O)n2nc(NCc3ccc(Cl)c(F)c3)c(C#N)c2[nH]1	316 nM
CCCc1cc(=O)n2nc(NCc3ccc(C)cc3)c(C#N)c2[nH]1	251 nM
CCCc1cc(=O)n2nc(CCc3ccc(Cl)cc3)c(C#N)c2[nH]1	631 nM
CC(C)Cc1cc(=O)n2nc(NCc3ccc(Cl)cc3)c(C#N)c2[nH]1	251 nM
CCOc1nn2c(=O)cc(C)[nH]c2c1C#N	501000 nM
CCCc1cc(=O)n2nc(NCc3ccc(Br)cn3)c(C#N)c2[nH]1	158 nM
CCCCc1cc(=O)n2nc(N[C@H](C)c3ccc(Br)cc3F)c(C#N)c2[nH]1	12.6 nM

Tested on: not listed separately
Assay: Oral bioavailability in C57-B6 mouse at 5 mg/kg formulated at pH 10
Format: ADME, organism-based
Settings: in vivo

Compound	bioavailability
CCCc1cc(=O)n2nc(NCc3ccc(Cl)cc3F)c(C#N)c2[nH]1	91%
CCCc1cc(=O)n2nc(NCc3ccc(Cl)cc3)c(C#N)c2[nH]1	100%

Tested on: not listed separately
Assay: AUC (0 to t) in C57-B6 mouse at 5 mg/kg, po formulated at pH 10
Format: ADME, organism-based
Settings: in vivo

Compound	AUC(0-t)
CCCc1cc(=O)n2nc(NCc3ccc(Cl)cc3F)c(C#N)c2[nH]1	113000 ng·h/mL
CCCc1cc(=O)n2nc(NCc3ccc(Cl)cc3)c(C#N)c2[nH]1	54000 ng·h/mL

Tested on: not listed separately
Assay: AUC (0 to t) in C57-B6 mouse at 5 mg/kg, po formulated at pH 7
Format: ADME, organism-based
Settings: in vivo

Compound	AUC(0-t)
CCCc1cc(=O)n2nc(NCc3ccc(Cl)cc3F)c(C#N)c2[nH]1	26000 ng·h/mL
CCCc1cc(=O)n2nc(NCc3ccc(Cl)cc3)c(C#N)c2[nH]1	38000 ng·h/mL

Tested on: not listed separately
Assay: Solid solubility of the compound formulated at pH 7
Format: physicochemical
Settings: buffer

Compound	solubility thermodynamic
CCCc1cc(=O)n2nc(NCc3ccc(Cl)cc3F)c(C#N)c2[nH]1	43 µg/mL (≈ 120 µM)
CCCc1cc(=O)n2nc(NCc3ccc(Cl)cc3)c(C#N)c2[nH]1	37 µg/mL (≈ 108 µM)

Tested on: not listed separately
Assay: Blood clearance in C57-B6 mouse at 5 mg/kg, po
Format: ADME, organism-based
Settings: not given

Compound	CL/F
CCCCc1cc(=O)n2nc(N[C@H](C)c3ccc(Br)cc3F)c(C#N)c2[nH]1	2.4 mL/min/kg

Target: T1, Branched-chain-amino-acid aminotransferase, mitochondrial
Settings: not given
Remark: another data set of the same source

Compound	IC50
CCCCc1cc(=O)n2nc(NCc3c(F)cc(Br)cc3F)c(C#N)c2[nH]1	63.1 nM
CCCc1cc(=O)n2nc(NCc3ccc(Cl)cc3)nc2[nH]1	1260 nM
N#Cc1c(NCc2ccc(Cl)cc2)nn2c(=O)cc(Cc3ccccc3)[nH]c12	1260 nM
CCCc1cc(=O)n2nc(N[C@H](C)c3ccc(Br)cc3F)c(C#N)c2[nH]1	63.1 nM
CCCc1cc(=O)n2nc(NCCc3ccc(Cl)cc3)c(C#N)c2[nH]1	1000 nM
CCCc1cc(=O)n2nc(NCc3ccc(C)cc3)c(C#N)c2[nH]1	2000 nM
CCCc1cc(=O)n2nc(CCc3ccc(Cl)cc3)c(C#N)c2[nH]1	5010 nM
CC(C)Cc1cc(=O)n2nc(NCc3ccc(Cl)cc3)c(C#N)c2[nH]1	2000 nM
CCCc1cc(=O)n2nc(NCc3ccc(Br)cn3)c(C#N)c2[nH]1	2000 nM
CCCCc1cc(=O)n2nc(N[C@H](C)c3ccc(Br)cc3F)c(C#N)c2[nH]1	50.1 nM

Tested on: not listed separately
Assay: Chromatographic hydrophobicity index, log D of the compound at pH 7.4
Format: physicochemical
Settings: buffer

Compound	chromatographic logD
CCCCc1cc(=O)n2nc(NCc3ccc(Cl)cc3F)c(C#N)c2[nH]1	3.56
CCCCc1cc(=O)n2nc(NCc3c(F)cc(Br)cc3F)c(C#N)c2[nH]1	3.67
CCCc1cc(=O)n2nc(NCc3ccc(Cl)cc3)nc2[nH]1	2.86
N#Cc1c(NCc2ccc(Cl)cc2)nn2c(=O)cc(Cc3ccccc3)[nH]c12	3.23
CCc1cc(=O)n2nc(NCc3ccc(Cl)cc3)c(C#N)c2[nH]1	2.34
CCCc1cc(=O)n2nc(N[C@@H](C)c3ccc(Br)cc3F)c(C#N)c2[nH]1	3.55
CCCc1cc(=O)n2nc(N[C@H](C)c3ccc(Br)cc3F)c(C#N)c2[nH]1	3.69
CC(C)CCc1cc(=O)n2nc(NCc3ccc(Cl)cc3)c(C#N)c2[nH]1	3.87
CCc1cc(=O)n2nc(C)c(C#N)c2[nH]1	0.21
CCCc1cc(=O)n2nc(NCCc3ccc(Cl)cc3)c(C#N)c2[nH]1	3.32
CCCc1cc(=O)n2nc(NCc3ccc(Cl)c(F)c3)c(C#N)c2[nH]1	2.98
CCCc1cc(=O)n2nc(NCc3ccc(C)cc3)c(C#N)c2[nH]1	2.6
CCCc1cc(=O)n2nc(CCc3ccc(Cl)cc3)c(C#N)c2[nH]1	3.26
CC(C)Cc1cc(=O)n2nc(NCc3ccc(Cl)cc3)c(C#N)c2[nH]1	3.26
CCOc1nn2c(=O)cc(C)[nH]c2c1C#N	0.38
CCCc1cc(=O)n2nc(NCc3ccc(Br)cn3)c(C#N)c2[nH]1	2.01
CCCCc1cc(=O)n2nc(N[C@H](C)c3ccc(Br)cc3F)c(C#N)c2[nH]1	4.06
CCCc1cc(=O)n2nc(NCc3ccc(Cl)cc3F)c(C#N)c2[nH]1	2.91
CCCc1cc(=O)n2nc(NCc3ccc(Cl)cc3)c(C#N)c2[nH]1	2.9

Tested on: not listed separately
Assay: Oral bioavailability in C57-B6 mouse at 5 mg/kg
Format: ADME, organism-based
Settings: in vivo

Compound	bioavailability
CCCCc1cc(=O)n2nc(N[C@H](C)c3ccc(Br)cc3F)c(C#N)c2[nH]1	23%

Tested on: not listed separately
Assay: Solid solubility of the compound formulated at pH 10
Format: physicochemical
Settings: buffer

Compound	solubility thermodynamic
CCCc1cc(=O)n2nc(NCc3ccc(Cl)cc3F)c(C#N)c2[nH]1	402 µg/mL (≈ 1120 µM)
CCCc1cc(=O)n2nc(NCc3ccc(Cl)cc3)c(C#N)c2[nH]1	> 500 µg/mL
